The record followed here is US10123993B2, “Cyclic ureas as inhibitors of rock” (BRISTOL-MYERS SQUIBB COMPANY, priority 2015, dated 2018).

As usually defined, the IC50 is the concentration needed to halve the response being measured. Lower therefore signals greater potency.

Structures are written as SMILES.

Sequence of ROCK2 (O75116 whole entry, species assumed): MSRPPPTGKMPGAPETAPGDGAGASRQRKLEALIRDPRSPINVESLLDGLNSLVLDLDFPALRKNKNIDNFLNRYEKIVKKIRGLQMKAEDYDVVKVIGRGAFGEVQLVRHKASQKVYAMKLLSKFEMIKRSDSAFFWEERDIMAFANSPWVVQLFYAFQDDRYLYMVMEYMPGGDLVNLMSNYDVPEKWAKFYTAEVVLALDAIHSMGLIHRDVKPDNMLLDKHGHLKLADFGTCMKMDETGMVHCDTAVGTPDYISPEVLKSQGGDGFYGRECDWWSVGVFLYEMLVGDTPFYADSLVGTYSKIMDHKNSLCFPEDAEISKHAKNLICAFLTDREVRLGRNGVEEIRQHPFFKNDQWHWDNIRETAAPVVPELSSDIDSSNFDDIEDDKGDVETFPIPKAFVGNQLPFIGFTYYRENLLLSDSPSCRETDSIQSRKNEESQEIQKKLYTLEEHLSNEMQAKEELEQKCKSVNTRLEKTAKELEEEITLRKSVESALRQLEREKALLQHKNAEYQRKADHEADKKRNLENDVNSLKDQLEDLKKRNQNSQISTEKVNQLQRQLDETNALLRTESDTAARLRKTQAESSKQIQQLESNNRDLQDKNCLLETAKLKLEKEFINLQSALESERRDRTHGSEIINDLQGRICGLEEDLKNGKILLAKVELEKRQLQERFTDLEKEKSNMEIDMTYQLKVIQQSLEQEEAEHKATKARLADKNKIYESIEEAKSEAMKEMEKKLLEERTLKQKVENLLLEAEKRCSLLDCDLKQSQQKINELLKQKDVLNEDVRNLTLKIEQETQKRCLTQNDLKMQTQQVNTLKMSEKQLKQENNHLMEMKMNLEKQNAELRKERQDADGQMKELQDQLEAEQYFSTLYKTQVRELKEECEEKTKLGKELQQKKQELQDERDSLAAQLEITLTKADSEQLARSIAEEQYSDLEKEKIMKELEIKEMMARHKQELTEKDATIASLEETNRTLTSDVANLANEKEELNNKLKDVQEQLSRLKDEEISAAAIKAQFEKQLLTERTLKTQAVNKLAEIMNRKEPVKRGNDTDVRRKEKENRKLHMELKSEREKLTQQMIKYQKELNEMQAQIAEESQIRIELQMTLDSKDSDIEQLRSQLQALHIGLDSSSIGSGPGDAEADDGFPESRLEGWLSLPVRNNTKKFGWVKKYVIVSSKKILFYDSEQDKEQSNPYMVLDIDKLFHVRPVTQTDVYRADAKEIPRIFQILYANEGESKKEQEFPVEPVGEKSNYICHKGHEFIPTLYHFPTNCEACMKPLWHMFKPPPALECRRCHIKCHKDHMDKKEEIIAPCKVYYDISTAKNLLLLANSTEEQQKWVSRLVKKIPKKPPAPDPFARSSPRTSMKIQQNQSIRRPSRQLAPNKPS

For the experiment, the target named is ROCK2 (Homo sapiens, UniProt O75116). Nature of the experiment: ROCK2 kinase inhibition assay (Caliper LABCHIP, FITC peptide substrate). It is filed as biochemical. As to conditions: 5 μM ATP, 1.5 μM peptide substrate; value ranges. The essentials:
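Rho kinase with 5 μM ATP and 1.5 μM FITC-AHA-AKRRRLSSLRA-OH peptide in HEPES pH 7.5, 20 mM MgCl2, 0.015% Brij-35, 4 mM DTT, DMSO <2%. EDTA stop; phospho and non-phospho peptide separated on LabChip. IC50 from dose-response fit.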
As to `CCC1CN(c2ccc(-c3cn[nH]c3)cc2)C(=O)N1Cc1cccc(OCC2CC2)c1` (stereo not drawn) [Example 177, 1-(4-(1H-pyrazol-4-yl)phenyl)-3-(3-(cyclo-propyl-methoxy)-benzyl)-4-ethyl-imidazolidin-2-one], the IC50 was 20.1 to 200 nM.

In turn, `COc1cc(F)cc(CN2CCN(c3ccc(-c4cn[nH]c4)c(C)n3)C2=O)c1` [Example 178, 1-(3-fluoro-5-methoxy-benzyl)-3-(6-methyl-5-(1H-pyrazol-4-yl)pyridin-2-yl)-imidazolidin-2-one] gave an IC50 of 2.1 to 20 nM.

Regarding `COc1cccc(CN2CCN(c3ccc(-c4cn[nH]c4)c(C)n3)C2=O)c1` [Example 179, 1-(3-methoxy-benzyl)-3-(6-methyl-5-(1H-pyrazol-4-yl)pyridin-2-yl)-imidazolidin-2-one], the IC50 was in the range of 2.1 to 20 nM.

`CCc1nc(-n2ccn(Cc3cccc(OC)c3)c2=O)ccc1-c1cn[nH]c1` [Example 180, 1-(6-ethyl-5-(1H-pyrazol-4-yl)pyridin-2-yl)-3-(3-methoxy-benzyl)-1H-imidazol-2(3H)-one]: the IC50 is less than 2 nM.

Take `COc1cc(F)cc(Cn2ccn(-c3ccc(-c4cn[nH]c4)c(C)n3)c2=O)c1` [Example 185, 1-(3-fluoro-5-methoxy-benzyl)-3-(6-methyl-5-(1H-pyrazol-4-yl)pyridin-2-yl)-1H-imidazol-2(3H)-one]: the IC50 lay within 2.1 to 20 nM.

Take `Cc1nc(N2CCN(Cc3cccc(OCC4CC4)c3)C2=O)ccc1-c1cn[nH]c1` [Example 186, 1-(3-(cyclo-propyl-methoxy)-benzyl)-3-(6-methyl-5-(1H-pyrazol-4-yl)pyridin-2-yl)-imidazolidin-2-one]: the IC50 lay in the range of 20.1 to 200 nM.

In turn, `COc1cccc(Cn2ccn(-c3ccc(-c4cn[nH]c4)c(C)n3)c2=O)c1` [Example 187, 1-(3-methoxy-benzyl)-3-(6-methyl-5-(1H-pyrazol-4-yl)pyridin-2-yl)-1H-imidazol-2(3H)-one] registered an IC50 of 2.1 to 20 nM.

`CCc1cc(N2CCN(Cc3cccc(OC)c3)C2=O)ncc1-c1cn[nH]c1` [Example 190, 1-(4-ethyl-5-(1H-pyrazol-4-yl)pyridin-2-yl)-3-(3-methoxy-benzyl) imidazolidin-2-one] returned an IC50 of 200 to 2000 nM.

In turn, `CCc1cc(N2CCN(Cc3cc(F)cc(OC)c3)C2=O)ncc1-c1cn[nH]c1` [Example 191, 1-(4-ethyl-5-(1H-pyrazol-4-yl)pyridin-2-yl)-3-(3-fluoro-5-methoxy-benzyl) imidazolidin-2-one] yielded an IC50 of 200 to 2000 nM.

For `CCc1cc(N2CCN(Cc3ccc(F)c(OC)c3)C2=O)ncc1-c1cn[nH]c1` [Example 194, 1-(4-ethyl-5-(1H-pyrazol-4-yl)pyridin-2-yl)-3-(4-fluoro-3-methoxy-benzyl) imidazolidin-2-one], the half-maximal inhibitory concentration (IC50) lay in the range of 200 to 2000 nM.

As to `CNc1nc(N2CCN(Cc3ccc(F)c(OC)c3)C2=O)ccc1-c1cn[nH]c1` [Example 199, 1-(4-fluoro-3-methoxy-benzyl)-3-(6-(methyl-amino)-5-(1H-pyrazol-4-yl)pyridin-2-yl)-imidazolidin-2-one], the IC50 lay in the range of 20.1 to 200 nM.

On to `CNc1nc(N2CCN(Cc3cc(F)cc(OC)c3)C2=O)ccc1-c1cn[nH]c1` [Example 200, 1-(3-fluoro-5-methoxy-benzyl)-3-(6-(methyl-amino)-5-(1H-pyrazol-4-yl)pyridin-2-yl)-imidazolidin-2-one], for which the IC50 lay within 2.1 to 20 nM.

As for `CNc1nc(N2CCN(Cc3cccc(OCC4CC4)c3)C2=O)ccc1-c1cn[nH]c1` [Example 201, 1-(3-(cyclopropyl-methoxy)-benzyl)-3-(6-(methyl-amino)-5-(1H-pyrazol-4-yl)pyridin-2-yl)-imidazolidin-2-one], the half-maximal inhibitory concentration (IC50) lay in the range of 200 to 2000 nM.

`CNc1nc(N2CCN(Cc3cccc(OC)c3)C2=O)ccc1-c1cn[nH]c1` [Example 202, 1-(3-methoxy-benzyl)-3-(6-(methyl-amino)-5-(1H-pyrazol-4-yl)pyridin-2-yl)-imidazolidin-2-one] registered an IC50 of 2.1 to 20 nM.

Turning to `COc1cccc(CN2CCN(c3ccc(-c4ccncc4F)c(C)n3)C2=O)c1` [Example 205, 1-(3′-fluoro-2-methyl-[3,4′-bipyridin]-6-yl)-3-(3-methoxy-benzyl) imidazolidin-2-one], the IC50 lay within 200 to 2000 nM.

On to `Cc1nc(N2CCN(Cc3ccc(F)c(OCC4CC4)c3)C2=O)ccc1-c1cn[nH]c1` [Example 210, 1-(3-(cyclopropylmethoxy)-4-fluorobenzyl)-3-(6-methyl-5-(1H-pyrazol-4-yl)pyridin-2-yl)imidazolidin-2-one], for which the IC50 was 20.1 to 200 nM.

`O=C1N(CC2CCCCC2)CCN1c1ccc(-c2cn[nH]c2)cc1` [Example 211, 1-(4-(1H-pyrazol-4-yl)phenyl)-3-(cyclohexylmethyl)imidazolidin-2-one] yielded an IC50 of 200 to 2000 nM.

`COc1cc(CN2CCN(c3ccc(-c4cn[nH]c4)c(OC)n3)C2=O)ccc1F` [Example 214, 1-(4-fluoro-3-methoxybenzyl)-3-(6-methoxy-5-(1H-pyrazol-4-yl)pyridin-2-yl)imidazolidin-2-one] showed a 50% inhibitory concentration (IC50) of less than 2 nM.

In turn, `COc1nc(N2CCN(Cc3ccc(F)c(OCC4CC4)c3)C2=O)ccc1-c1cn[nH]c1` [Example 218, 1-(3-(cyclopropylmethoxy)-4-fluorobenzyl)-3-(6-methoxy-5-(1H-pyrazol-4-yl)pyridin-2-yl)imidazolidin-2-one] registered an IC50 of 2.1 to 20 nM.

The compound `COc1ccc(F)c(CN2CCN(c3ccc(-c4cn[nH]c4)c(OC)n3)C2=O)c1` [Example 221, 1-(2-fluoro-5-methoxybenzyl)-3-(6-methoxy-5-(1H-pyrazol-4-yl)pyridin-2-yl)imidazolidin-2-one] showed an IC50 of less than 2 nM.

`COc1ccc(F)cc1CN1CCN(c2ccc(-c3cn[nH]c3)c(OC)n2)C1=O` [Example 222, 1-(5-fluoro-2-methoxybenzyl)-3-(6-methoxy-5-(1H-pyrazol-4-yl)pyridin-2-yl)imidazolidin-2-one] returned an IC50 of 2.1 to 20 nM.

`COc1nc(N2CCN(Cc3cccc(F)c3F)C2=O)ccc1-c1cn[nH]c1` [Example 223, 1-(2,3-difluorobenzyl)-3-(6-methoxy-5-(1H-pyrazol-4-yl)pyridin-2-yl)imidazolidin-2-one]: the IC50 was in the range of 2.1 to 20 nM.

As for `COc1nc(N2CCN(Cc3cc(F)cc(OCC4CC4)c3)C2=O)ccc1-c1cn[nH]c1` [Example 224, 1-(3-(cyclopropylmethoxy)-5-fluorobenzyl)-3-(6-methoxy-5-(1H-pyrazol-4-yl)pyridin-2-yl)imidazolidin-2-one], the IC50 is 2.1 to 20 nM.

`COc1nc(N2CCN(Cc3cccc(F)c3OC)C2=O)ccc1-c1cn[nH]c1` [Example 225, 1-(3-fluoro-2-methoxybenzyl)-3-(6-methoxy-5-(1H-pyrazol-4-yl)pyridin-2-yl)imidazolidin-2-one] registered an IC50 of 2.1 to 20 nM.

With `COc1nc(N2CCN(Cc3cccc(F)c3)C2=O)ccc1-c1cn[nH]c1` [Example 226, 1-(3-fluorobenzyl)-3-(6-methoxy-5-(1H-pyrazol-4-yl)pyridin-2-yl)imidazolidin-2-one], the IC50 is less than 2 nM.

Compound `COc1nc(N2CCN(CC3CCCCC3)C2=O)ccc1-c1cn[nH]c1` [Example 227, 1-(cyclohexylmethyl)-3-(6-methoxy-5-(1H-pyrazol-4-yl)pyridin-2-yl)imidazolidin-2-one] gave an IC50 of 2.1 to 20 nM.

The compound `COc1nc(N2CCN(Cc3cccc(OC(F)F)c3)C2=O)ccc1-c1cn[nH]c1` [Example 233, 1-(3-(difluoromethoxy)benzyl)-3-(6-methoxy-5-(1H-pyrazol-4-yl)pyridin-2-yl)imidazolidin-2-one] showed an IC50 of 2.1 to 20 nM.
